Assay results as given in patent US20230339983A1, “FLUORESCENT COMPOUNDS SPECIFIC FOR PLURIPOTENT STEM CELLS AND REPROGRAMMING-READY CELLS AND METHODS OF USING THE SAME” (Agency for Science, Technology and Research, priority 2018, published 2023).

Key:
[1] = test system: reprogramming (RP) versus non-reprogramming (non-RP) DPSCs (DPSC1); test: Signal-to-noise comparison of reprogramming versus non-reprogramming cells; format: cell-based, human
Protocol: FIG. 14: (A) Graph representing signal-to-noise ratios (arbitrary fluorescence units) on comparing reprogramming (RP) versus non-reprogramming (non-RP) DPSCs (DPSC1) stained with either CDy1 or BDL-E5. The fluorescence intensity was measured using ImageJ software. 100 cells per field (10×), 10 fields per well, 3 wells per probe were measured. […] denotes significance between RP and non-RP cells. (B) Proliferation assay of DPSC1 incubated with BDL-E5 (500 nM) for 2 to 5 days; represented as number of viable cells per cm^2 (n=3). (C) Proliferation assay of reprogramming DPSC1, 48 h after transfection with Scr CREB1, CREB1 OE or siCREB1; represented as number of viable cells per cm^2 (n=3).

[2] = test system: DPSCs; test: Proliferation assay (Trypan Blue viable cell count); format: cell-based, human; conditions: 500 nM
Protocol: To ensure that BDL-E5 was not toxic to the cells, DPSCs were incubated with BDL-E5 (500 nM) for 48 h and 72 h and viable cells were counted in a haemocytometer using the Tryphan Blue method. DPSCs in which CREB1 was over-expressed or silenced were also counted at 72 h post nucleofection to determine if gene manipulation has affected the cell proliferation.

COc1cc(F)c(/C=C/c2cc(C)c3n2[B-](F)(F)[N+]2=C(CCC(=O)NCCN(C)C)C=CC2=C3)cc1OC [BDL-E5]
signal toward reprogramming cells and background staining against non-reprogramming cells [1]: low non-specific staining against non-reprogramming cells
toxicity to cells [2]: not toxic
